CO[C@H]1/C=C/O[C@@]2(C)Oc3c(C)c(O)c4c(O)c(c(/C=N/N5CCN(C6CCCC6)CC5)c(O)c4c3C2=O)NC(=O)/C(C)=C\C=C\[C@H](C)[C@H](O)[C@@H](C)[C@@H](O)[C@@H](C)[C@H](OC(C)=O)[C@@H]1C
solubility (mole fraction)
Details | 278.15 K | 283.15 K | 288.15 K | 293.15 K | 297.15 K | 303.15 K | 308.15 K | 313.15 K | 318.15 K | 323.15 K
in acetone | 0.000523 | 0.00053 | 0.000536 | 0.000549 | 0.000563 | 0.000576 | 0.000609 | 0.000635 | 0.000668 | 0.000701
in chloroform | 0.0254 | 0.0265 | 0.0281 | 0.0287 | 0.0293 | 0.0299 | 0.0308 | 0.0316 | 0.0326 | 0.0334
in dichloromethane | 0.0159 | 0.0165 | 0.0175 | 0.0184 | 0.0196 | 0.0209 | 0.0224 | – | – | –
in ethanol | 0.000515 | 0.000525 | 0.000541 | 0.000562 | 0.000583 | 0.000604 | 0.000625 | 0.000651 | 0.000677 | 0.000703
in methanol | 0.022 | 0.0224 | 0.0229 | 0.0235 | 0.0242 | 0.0249 | 0.0257 | 0.0267 | 0.0278 | 0.029

From BigSolDB 2.1
